Key:
Pigweed = experiment: Test B pre-emergence on Fallsington silt loam; type: in vivo, Amaranthus retroflexus; details: 28 days
Source text: (§1) Two plastic bulb pans were filled with fertilized and limed Fallsington silt loam soil. One pan was planted with corn, sorghum, Kentucky bluegrass and several grassy weeds. The other pan was planted with cotton, soybeans, purple nutsedge (Cyperus rotundus), and several broadleaf weeds. The following grassy and broadleaf weeds were planted: crabgrass (Digitaria sanguinalis), barnyardgrass (Echinochloa crusgalli), wild oats (Avena fatua), johnsongrass (Sorghum halepense), dallisgrass (Paspalum dilatatum), giant foxtail (Setaria faberii), cheatgrass (Bromus secalinus), mustard (Brassica arvensis), cocklebur (Xanthium pensylvanicum), pigweed (Amaranthus retroflexus), morningglory (Ipomoea hederacea), cassia (Cassia tora), teaweed (Sida spinosa), velvetleaf (Abutilon theophrasti), and jimsonweed (Datura stramonium). A 12.5 cm diameter plastic pot was also filed with prepared soil and planted with rice and wheat. Another 12.5 cm pot was planted with sugarbeets. The above four containers were treated pre- emergence with several test compounds within the scope of the invention.
(§2) Twenty-eight days after treatment, the plants were evaluated and visually rated for response to the chemical treatments utilizing the rating system described previously for Test A. The data are summarized in Table B.

Sesbania = experiment: Test F over-the-top soil/foliage treatment; type: in vivo, Sesbania exaltata; design: scale not given here; details: soil/foliage spray, ~14 days
Experimental: (§3) The test chemicals, dissolved in a non-phytotoxic solvent, were applied in an overall spray to the foliage and surrounding […] of selected plant species. […] Approximately fourteen days after treatment, all species were visually compared to untreated controls and rated for response to treatment.
(§4) All plant species were seeded in Woodstown sandy loam soil and grown in a greenhouse. The following species were grown in soil contained in plastic pots (25 cm diameter by 13 cm deep): soybeans, cotton, alfalfa, corn, rice, wheet, sorghum, velvetleaf (Abutilon theophrasti), sesbania (Sesbania exaltata), Cassia (Cassia tora), morningglory (Ipomoea hederacea), jimsonweed (Datura stramonium), cocklebur (Xanthium pensylvanicum), crabgrass (Digitaria spp.), nutsedge (Cyperus rotundus), barnyardgrass (Echinochloa crusgalli), giant foxtail (Setaria faberii) and wild oats (Avena fatua). The following species were grown in soil in a paper cup (12 cm diameter by 13 cm deep): sunflower, sugarbeets, and mustard. All plants were sprayed approximately 14 days after planting.

Wild Oats [1] = experiment: Test B pre-emergence on Fallsington silt loam; type: in vivo, Avena fatua; design: scale not given here; details: 28 days
Source text: as §1, §2

Ky. bluegrass = experiment: Test B pre-emergence on Fallsington silt loam; type: in vivo, Kentucky bluegrass; design: scale not given here; details: 28 days
Source text: as §1, §2

Wheat [2] = experiment: Test F over-the-top soil/foliage treatment; type: in vivo, wheet; design: scale not given here; details: soil/foliage spray, ~14 days
Experimental: as §3, §4

Sunflower = experiment: Test F over-the-top soil/foliage treatment; type: in vivo; details: soil/foliage spray, ~14 days
Experimental: as §3, §4

Corn [3] = experiment: Test F over-the-top soil/foliage treatment; type: in vivo; details: soil/foliage spray, ~14 days
Experimental: as §3, §4

Sugarbeets [4] = experiment: Test F over-the-top soil/foliage treatment; type: in vivo; details: soil/foliage spray; 0.007 kg/ha; ~14 days
Experimental: as §3, §4

Mustard = experiment: Test F over-the-top soil/foliage treatment; type: in vivo; details: soil/foliage spray, ~14 days
Experimental: as §3, §4

Wheat [5] = experiment: Test B pre-emergence on Fallsington silt loam; type: in vivo; design: scale not given here; details: 28 days
Source text: as §1, §2

Sugarbeets [6] = experiment: Test B pre-emergence on Fallsington silt loam; type: in vivo; design: scale not given here; details: 28 days
Source text: as §1, §2

Barnyardgrass [7] = experiment: Test F over-the-top soil/foliage treatment; type: in vivo, Echinochloa crusgalli; design: scale not given here; details: soil/foliage spray, ~14 days
Experimental: as §3, §4

Sorghum [8] = experiment: Test F over-the-top soil/foliage treatment; type: in vivo; design: scale not given here; details: soil/foliage spray, ~14 days
Experimental: as §3, §4

Alfalfa = experiment: Test F over-the-top soil/foliage treatment; type: in vivo; design: scale not given here; details: soil/foliage spray, ~14 days
Experimental: as §3, §4

Jimsonweed = experiment: Test F over-the-top soil/foliage treatment; type: in vivo, Datura stramonium; details: soil/foliage spray, ~14 days
Experimental: as §3, §4

Wild Oats [9] = experiment: Test F over-the-top soil/foliage treatment; type: in vivo, Avena fatua; design: scale not given here; details: soil/foliage spray, ~14 days
Experimental: as §3, §4

Cassia = experiment: Test B pre-emergence on Fallsington silt loam; type: in vivo, Cassia tora; details: 28 days
Source text: as §1, §2

Cocklebur = experiment: Test B pre-emergence on Fallsington silt loam; type: in vivo, Xanthium pensylvanicum; details: 28 days
Source text: as §1, §2

Johnsongrass = experiment: Test B pre-emergence on Fallsington silt loam; type: in vivo, Sorghum halepense; design: scale not given here; details: 28 days
Source text: as §1, §2

Sorghum [10] = experiment: Test B pre-emergence on Fallsington silt loam; type: in vivo; details: 28 days
Source text: as §1, §2

Nutsedge [11] = experiment: Test F over-the-top soil/foliage treatment; type: in vivo, Cyperus rotundus; design: scale not given here; details: soil/foliage spray, ~14 days
Experimental: as §3, §4

Giant Foxtail = experiment: Test F over-the-top soil/foliage treatment; type: in vivo, Setaria faberii; design: scale not given here; details: soil/foliage spray, ~14 days
Experimental: as §3, §4

Morningglory = experiment: Test B pre-emergence on Fallsington silt loam; type: in vivo, Ipomoea hederacea; details: 28 days
Source text: as §1, §2

Dallisgrass = experiment: Test B pre-emergence on Fallsington silt loam; type: in vivo, Paspalum dilatatum; design: scale not given here; details: 28 days
Source text: as §1, §2

Soybean = experiment: Test B pre-emergence on Fallsington silt loam; type: in vivo, soybeans; details: 28 days
Source text: as §1, §2

Crabgrass = experiment: Test B pre-emergence on Fallsington silt loam; type: in vivo, Digitaria sanguinalis; design: scale not given here; details: 28 days
Source text: as §1, §2

Barnyardgrass [12] = experiment: Test B pre-emergence on Fallsington silt loam; type: in vivo, Echinochloa crusgalli; details: 28 days
Source text: as §1, §2

Corn [13] = experiment: Test B pre-emergence on Fallsington silt loam; type: in vivo; design: scale not given here; details: 28 days
Source text: as §1, §2

Cheatgrass = experiment: Test B pre-emergence on Fallsington silt loam; type: in vivo, Bromus secalinus; details: 0.007 kg/ha, 28 days
Source text: as §1, §2

Nutsedge [14] = experiment: Test B pre-emergence on Fallsington silt loam; type: in vivo, Cyperus rotundus; details: 28 days
Source text: as §1, §2

COc1cc(OC)nc(NC(=O)NS(=O)(=O)c2ccccc2OS(C)(=O)=O)n1 [Compound 1, N-[(4,6-Dimethoxypyrimidin-2-yl)aminocarbonyl]-2-hydroxybenzenesulfonamide, methanesulfonate]
Pigweed response rating (Pigweed; 0.03 kg/ha): 10C
Sesbania response rating (Sesbania; 0.003 kg/ha): 10C
Sesbania response rating (Sesbania; 0.007 kg/ha): 10C
Sesbania response rating (Sesbania; 0.015 kg/ha): 9C
Sesbania response rating (Sesbania; 0.06 kg/ha): 9C
Wild Oats response rating (Wild Oats [1]; 0.03 kg/ha): 6G
Wild Oats response rating (Wild Oats [1]; 0.12 kg/ha): 10C
Ky. bluegrass response rating (Ky. bluegrass; 0.12 kg/ha): 10C
Wheat response rating (Wheat [2]; 0.003 kg/ha): 1G
Wheat response rating (Wheat [2]; 0.007 kg/ha): 0
Wheat response rating (Wheat [2]; 0.015 kg/ha): 0
Wheat response rating (Wheat [2]; 0.06 kg/ha): 0
Sunflower response rating (Sunflower; 0.003 kg/ha): 10C
Sunflower response rating (Sunflower; 0.007 kg/ha): 10C
Corn response rating (Corn [3]; 0.06 kg/ha): 10C
Sugarbeets response rating (Sugarbeets [4]): 10C
Mustard response rating (Mustard; 0.003 kg/ha): 10C
Mustard response rating (Mustard; 0.007 kg/ha): 10C
Wheat response rating (Wheat [5]; 0.03 kg/ha): 0
Wheat response rating (Wheat [5]; 0.12 kg/ha): 3G
Sugarbeets response rating (Sugarbeets [6]; 0.03 kg/ha): 10C
Sugarbeets response rating (Sugarbeets [6]; 0.12 kg/ha): 10C
Barnyardgrass response rating (Barnyardgrass [7]; 0.015 kg/ha): 10C
Barnyardgrass response rating (Barnyardgrass [7]; 0.06 kg/ha): 10C
Sorghum response rating (Sorghum [8]; 0.015 kg/ha): 9C
Sorghum response rating (Sorghum [8]; 0.06 kg/ha): 10C
Alfalfa response rating (Alfalfa; 0.015 kg/ha): 5C
Alfalfa response rating (Alfalfa; 0.06 kg/ha): 9C
Jimsonweed response rating (Jimsonweed; 0.003 kg/ha): 0
Jimsonweed response rating (Jimsonweed; 0.007 kg/ha): 0
Jimsonweed response rating (Jimsonweed; 0.06 kg/ha): 9C
Wild Oats response rating (Wild Oats [9]; 0.003 kg/ha): 3G
Wild Oats response rating (Wild Oats [9]; 0.007 kg/ha): 3G
Wild Oats response rating (Wild Oats [9]; 0.015 kg/ha): 3G
Wild Oats response rating (Wild Oats [9]; 0.06 kg/ha): 6G
Cassia response rating (Cassia; 0.12 kg/ha): 10C
Cocklebur response rating (Cocklebur; 0.03 kg/ha): 6G
Johnsongrass response rating (Johnsongrass; 0.12 kg/ha): 10C
Sorghum response rating (Sorghum [10]; 0.12 kg/ha): 10C
Nutsedge response rating (Nutsedge [11]; 0.003 kg/ha): 3G
Nutsedge response rating (Nutsedge [11]; 0.007 kg/ha): 5G
Nutsedge response rating (Nutsedge [11]; 0.015 kg/ha): 10C
Nutsedge response rating (Nutsedge [11]; 0.06 kg/ha): 10C
Giant Foxtail response rating (Giant Foxtail; 0.003 kg/ha): 5G
Giant Foxtail response rating (Giant Foxtail; 0.007 kg/ha): 5G
Morningglory response rating (Morningglory; 0.03 kg/ha): 5G
Dallisgrass response rating (Dallisgrass; 0.03 kg/ha): 7G

Cc1cc(C)nc(NC(=O)NS(=O)(=O)c2ccccc2OS(C)(=O)=O)n1 [Compound 3, N-[(4,6-dimethylpyrimidin-2-yl)aminocarbonyl]-2-hydroxybenzenesulfonamide, methanesulfonate]
Pigweed response rating (Pigweed; 0.007 kg/ha): 0
Pigweed response rating (Pigweed; 0.12 kg/ha): 10C
Sesbania response rating (Sesbania; 0.015 kg/ha): 9C
Sesbania response rating (Sesbania; 0.06 kg/ha): 9C
Wild Oats response rating (Wild Oats [1]; 0.007 kg/ha): 0
Wild Oats response rating (Wild Oats [1]; 0.015 kg/ha): 0
Wild Oats response rating (Wild Oats [1]; 0.03 kg/ha): 10C
Wild Oats response rating (Wild Oats [1]; 0.12 kg/ha): 10C
Soybean response rating (Soybean; 0.007 kg/ha): 0
Soybean response rating (Soybean; 0.015 kg/ha): 0
Crabgrass response rating (Crabgrass; 0.007 kg/ha): 0
Crabgrass response rating (Crabgrass; 0.015 kg/ha): 0
Crabgrass response rating (Crabgrass; 0.03 kg/ha): 5G
Crabgrass response rating (Crabgrass; 0.12 kg/ha): 6G
Barnyardgrass response rating (Barnyardgrass [12]; 0.007 kg/ha): 2G
Barnyardgrass response rating (Barnyardgrass [12]; 0.015 kg/ha): 2G
Ky. bluegrass response rating (Ky. bluegrass; 0.007 kg/ha): 0
Ky. bluegrass response rating (Ky. bluegrass; 0.015 kg/ha): 2G
Ky. bluegrass response rating (Ky. bluegrass; 0.03 kg/ha): 10C
Wheat response rating (Wheat [2]; 0.003 kg/ha): 3G
Wheat response rating (Wheat [2]; 0.007 kg/ha): 6G
Wheat response rating (Wheat [2]; 0.015 kg/ha): 1C
Wheat response rating (Wheat [2]; 0.06 kg/ha): 8C
Sunflower response rating (Sunflower; 0.007 kg/ha): 10C
Corn response rating (Corn [3]; 0.007 kg/ha): 9G
Corn response rating (Corn [3]; 0.06 kg/ha): 10C
Sugarbeets response rating (Sugarbeets [4]): 10C
Mustard response rating (Mustard; 0.007 kg/ha): 10C
Wheat response rating (Wheat [5]; 0.007 kg/ha): 0
Wheat response rating (Wheat [5]; 0.015 kg/ha): 0
Wheat response rating (Wheat [5]; 0.03 kg/ha): 5G
Corn response rating (Corn [13]; 0.007 kg/ha): 0
Corn response rating (Corn [13]; 0.015 kg/ha): 0
Corn response rating (Corn [13]; 0.03 kg/ha): 10C
Corn response rating (Corn [13]; 0.12 kg/ha): 10C
Sugarbeets response rating (Sugarbeets [6]; 0.015 kg/ha): 4G
Sugarbeets response rating (Sugarbeets [6]; 0.03 kg/ha): 10C
Sugarbeets response rating (Sugarbeets [6]; 0.12 kg/ha): 10C
Barnyardgrass response rating (Barnyardgrass [7]; 0.015 kg/ha): 9C
Barnyardgrass response rating (Barnyardgrass [7]; 0.06 kg/ha): 10C
Sorghum response rating (Sorghum [8]; 0.015 kg/ha): 9C
Sorghum response rating (Sorghum [8]; 0.06 kg/ha): 10C
Alfalfa response rating (Alfalfa; 0.007 kg/ha): 7G
Alfalfa response rating (Alfalfa; 0.015 kg/ha): 8C
Alfalfa response rating (Alfalfa; 0.06 kg/ha): 9C
Jimsonweed response rating (Jimsonweed; 0.003 kg/ha): 0
Wild Oats response rating (Wild Oats [9]; 0.003 kg/ha): 4G
Wild Oats response rating (Wild Oats [9]; 0.007 kg/ha): 5G
Wild Oats response rating (Wild Oats [9]; 0.06 kg/ha): 10C
Cheatgrass response rating (Cheatgrass): 0
Cassia response rating (Cassia; 0.007 kg/ha): 0
Cassia response rating (Cassia; 0.015 kg/ha): 0
Nutsedge response rating (Nutsedge [14]; 0.007 kg/ha): 0
Nutsedge response rating (Nutsedge [14]; 0.015 kg/ha): 0
Cocklebur response rating (Cocklebur; 0.007 kg/ha): 0
Cocklebur response rating (Cocklebur; 0.015 kg/ha): 0
Cocklebur response rating (Cocklebur; 0.03 kg/ha): 7G
Johnsongrass response rating (Johnsongrass; 0.007 kg/ha): 0
Johnsongrass response rating (Johnsongrass; 0.015 kg/ha): 3G
Johnsongrass response rating (Johnsongrass; 0.03 kg/ha): 10C
Johnsongrass response rating (Johnsongrass; 0.12 kg/ha): 10C
Sorghum response rating (Sorghum [10]; 0.007 kg/ha): 2G
Sorghum response rating (Sorghum [10]; 0.015 kg/ha): 4G
Sorghum response rating (Sorghum [10]; 0.03 kg/ha): 10C
Nutsedge response rating (Nutsedge [11]; 0.003 kg/ha): 5G
Nutsedge response rating (Nutsedge [11]; 0.007 kg/ha): 7G
Giant Foxtail response rating (Giant Foxtail; 0.003 kg/ha): 0
Giant Foxtail response rating (Giant Foxtail; 0.007 kg/ha): 0
Morningglory response rating (Morningglory; 0.007 kg/ha): 3G
Morningglory response rating (Morningglory; 0.015 kg/ha): 3G
Morningglory response rating (Morningglory; 0.03 kg/ha): 8G
Dallisgrass response rating (Dallisgrass; 0.007 kg/ha): 0
Dallisgrass response rating (Dallisgrass; 0.015 kg/ha): 3G
Dallisgrass response rating (Dallisgrass; 0.03 kg/ha): 6G
